Where “and” joins values, the source holds several entries; their conditions need not be identical. Equal values may be shown once. Read-outs that look alike come from different tables or passages of the source. One block for each compound: values may come before it.
Target: CT-L activity of purified 20S proteasome (Homo sapiens, UniProt P20618+P28074)
Assay: in vitro CT-L activity of purified 20S proteasome
Format: biochemical
Settings: for fold loss of CT-L activity: compared to 1; for Chymotrypsin-like activity, % @ 10 μM: Table 2, @ 10 μM; for fold difference of CT-L potency between S- and R-enantiomer: 16c vs 16b, 16e vs 16f
[1] = Table 1, read-out: IC50 (μM) Chymotrypsin-like activity
[2] = read-out: % inhibition of CT-L @ 10 μM, @ 10 μM
[3] = Table 2, read-out: IC50 (μM) Chymotrypsin-like activity
[4] = Table 3, read-out: IC50 (μM) CT-L
[5] = Table 10, read-out: IC50 (μM) CT-L
[6] = Table 5, read-out: IC50 (μM) Chymotrypsin-like

Structure (SMILES): CC(C)N(Cc1nc(-c2ccccc2)no1)C(=O)COc1ccc(Cl)cc1 [11h, 2-(4-Chlorophenoxy)-N-isopropyl-N-((3-phenyl-1,2,4-oxadiazol-5-yl)methyl)acetamide]
- IC50 [1]: 0.51 ± 0.16 µM
- IC50 (read-out: IC50, in vitro CT-L): 0.3 to 0.5 µM

Structure (SMILES): Cc1ccc(OCC(=O)N(Cc2nc(-c3ccc(Cl)cc3)no2)C(C)C)cc1 [11i, N-((3-(4-chlorophenyl)-1,2,4-oxadiazol-5-yl)methyl)-N-isopropyl-2-(p-tolyloxy)acetamide]
- IC50 [1]: 0.45 ± 0.15 µM
- IC50 (read-out: IC50, in vitro CT-L): ~1 µM

Structure (SMILES): CC(C)N(Cc1nc(-c2ccccc2)no1)C(=O)COc1ccccc1 [11j, N-Isopropyl-2-phenoxy-N-((3-phenyl-1,2,4-oxadiazol-5-yl)methyl)acetamide]
- fold loss of CT-L activity: 10 fold
- IC50 (read-out: IC50, in vitro CT-L): 6.22 µM

Structure (SMILES): CC(C)N(Cc1nc(-c2ccc(C(F)(F)F)cc2)no1)C(=O)COc1ccccc1 [11l, N-Isopropyl-2-phenoxy-N-((3-(4-(trifluoromethyl)phenyl)-1,2,4-oxadiazol-5-yl)methyl)acetamide]
- IC50 [1]: 15.1 ± 6.94 µM
- fold loss of CT-L activity: 25 fold
- IC50 (read-out: IC50, in vitro CT-L): 15 µM

Structure (SMILES): Cc1cccc(OCC(=O)N(Cc2nc(-c3ccccc3)no2)C(C)C)c1 [11o, N-isopropyl-N-((3-phenyl-1,2,4-oxadiazol-5-yl)methyl)-2-(m-tolyloxy)acetamide]
- CT-L inhibitory activity, in words: loss of in vitro activity
- IC50 [1]: > 10 µM

Structure (SMILES): Cc1ccccc1OCC(=O)N(Cc1nc(-c2ccccc2)no1)C(C)C [11p, N-Isopropyl-N-((3-phenyl-1,2,4-oxadiazol-5-yl)methyl)-2-(o-tolyloxy)acetamide]
- CT-L inhibitory activity, in words: loss of in vitro activity
- IC50 [1]: > 10 µM

Structure (SMILES): CC(C)N(Cc1nc(-c2ccccc2)no1)C(=O)COc1ccc(-c2ccccc2)cc1 [11q, 2-(Biphenyl-4-yloxy)-N-isopropyl-N-((3-phenyl-1,2,4-oxadiazol-5-yl)methyl)acetamide]
- IC50 [1]: > 10 µM
- inhibition at 10 µM [2]: < 70%

Structure (SMILES): CC(C)N(Cc1nc(-c2ccccc2)no1)C(=O)COc1ccc(F)cc1 [11s, 2-(4-Fluorophenoxy)-N-isopropyl-N-((3-phenyl-1,2,4-oxadiazol-5-yl)methyl)acetamide]
- CT-L inhibitory activity, in words: poor CT-L inhibitory activity
- IC50 [1]: 8.73 ± 3.05 µM
- fold loss of CT-L inhibitory activity (compared to 11b): 20 fold

Structure (SMILES): CC(C)N(Cc1nc(-c2cccnc2)no1)C(=O)COc1ccc(O)cc1 [11u]
- IC50 [1]: 0.98 ± 0.5 µM
- IC50 (read-out: IC50, in vitro CT-L): ~1 µM

Structure (SMILES): CC(C)N(Cc1nc(-c2ccccc2)no1)C(=O)COc1ccc(O)cc1 [11v, 2-(4-hydroxyphenoxy)-N-isopropyl-N-((3-phenyl-1,2,4-oxadiazol-5-yl)methyl)acetamide]
- IC50 [1]: 10.1 ± 4.52 µM
- IC50 (read-out: IC50, in vitro CT-L): 10 µM

Structure (SMILES): Cc1ccc(OCC(=O)N(Cc2nc(-c3ccccn3)no2)C(C)C)cc1 [11w, N-Isopropyl-N-((3-(pyridin-2-yl)-1,2,4-oxadizaol-5-yl)methyl)-2-(p-tolyloxy)acetamide]
- IC50 [1]: 3.75 ± 1.47 µM
- IC50 (read-out: IC50, in vitro CT-L): 3.74 ± 1.47 µM

Structure (SMILES): Cc1ccc(OCC(=O)N(Cc2nc(-c3ccncc3)no2)C(C)C)cc1 [11y, N-Isopropyl-N-((3-(pyridin-4-yl)-1,2,4-oxadizaol-5-yl)methyl)-2-(p-tolyloxy)acetamide]
- IC50 (read-out: IC50, in vitro CT-L): 0.37 ± 0.04 µM

Structure (SMILES): Cc1ccc(OCC(=O)N(Cc2nc(-c3ccccc3)no2)C(C)C)cn1 [11z, N-Isopropyl-2-(60methylpyridin-3-yloxy)-N-((3-phenyl-1,2,4-oxadiazol-5-yl)methyl)acetamide]
- CT-L inhibitory activity, in words: failed to retain the activity
- IC50 [1]: 4 ± 0.89 µM

Structure (SMILES): Cc1ccc(OCC(=O)N(C)Cc2nc(-c3ccc(C)cc3)no2)cc1 [12c, N-Methyl-N-((3-p-tolyl-1,2,4-oxadiazol-5-yl)methyl)-2-(p-tolyloxy)acetamide]
- IC50 [3]: 29.9 ± 3.9 µM

Structure (SMILES): Cc1ccc(OCC(=O)NCc2nc(-c3ccc(C)cc3)no2)cc1 [12d, N-((3-p-tolyl-1,2,4-oxadiazol-5-yl)methyl)-2-(p-tolyloxy)acetamide]
- Chymotrypsin-like activity, % @ 10 μM: −62% @10 μM.

Structure (SMILES): Cc1ccc(OCC(=O)N(Cc2nc(-c3ccc(C)cc3)no2)C(C)(C)C)cc1 [12e]
- Chymotrypsin-like activity, % @ 10 μM: −108.42 ± 118.76%

Structure (SMILES): Cc1ccc(OCC(=O)N(Cc2nc(-c3ccc(C)cc3)no2)C2CC2)cc1 [12f, N-Cyclopropyl-N-((3-p-tolyl-1,2,4-oxadiazol-5-yl)methyl)-2-(p-tolyloxy)acetamide]
- Chymotrypsin-like activity, % @ 10 μM: −8.36 ± 19.03%

Structure (SMILES): Cc1ccc(OCC(=O)N(Cc2nc(-c3ccc(C)cc3)no2)C(C)C)cc1 [PI-1833 (23)]
- IC50 (Table 4, read-out: IC50 (μM) Chymotrypsin-like activity): 0.716 ± 0.27 µM

Structure (SMILES): CC(C)N(Cc1nc(-c2ccccc2)no1)C(=O)CCc1ccc(C(F)(F)F)cc1 [SO2-027, N-Isopropyl-N-((3-phenyl-1,2,4-oxadiazol-5-yl)methyl)-3-(4-(trifluoromethyl)phenyl)propanamide]
- IC50 [5]: 15.7 µM
- IC50 (read-out: IC50, in vitro CT-L): 15 µM

Structure (SMILES): Cc1ccc(NCC(=O)N(Cc2nc(-c3ccccc3)no2)C(C)C)cc1 [SO2-090, N-Isopropyl-N-((3-phenyl-1,2,4-oxadiazol-5-yl)methyl)-2-(p-tolylamino)acetamide]
- IC50 (read-out: IC50, in vitro CT-L): 5.67 µM

Structure (SMILES): Cc1ccc(OCC(=O)N(CCc2nc(-c3ccccc3)no2)C(C)C)cc1 [SO2-091, N-Isopropyl-N-(2-(3-phenyl-1,2,4-oxadiazol-5-yl)ethyl)-2-(p-tolyloxy)acetamide]
- inhibition at 10 µM [2]: 31%

Structure (SMILES): CC(C)N(Cc1nc(-c2cccnc2)no1)C(=O)c1cc2ccccc2o1 [SO3-029]
- IC50 [5]: 0.379 ± 0.063 µM

Structure (SMILES): Cc1ccc(OCC(=O)N(Cc2nc(-c3ccc(C)cc3)no2)CC(C)C)cc1 [compound 36]
- CT-L inhibitory activity, in words: loss of CT-L proteasome activity
- IC50 (Table 7, 20S CT-L proteasome activity, read-out: IC50 (μM) CT-L): 2.37 ± 0.4 µM

Structure (SMILES): Cc1ccc(OCC(=O)N(Cc2nc(-c3ccc(C)cc3)no2)CC(C)C)cc1 [drawing 111]
- IC50 [6]: 2.37 ± 0.4 µM

Structure (SMILES): Cc1ccc(OCC(=O)N(Cc2nc(-c3ccc(C(F)(F)F)cc3)no2)C(C)C)cc1 [drawing 112]
- IC50 [6]: 0.97 ± 0.15 µM

Structure (SMILES): Cc1ccc(OCC(=O)N(Cc2nc(-c3ccc(Cl)cc3)no2)C(C)C)cc1 [drawing 113]
- IC50 [6]: 0.45 ± 0.15 µM

Structure (SMILES): CC(C)N(Cc1nc(-c2ccccc2)no1)C(=O)COc1ccc(C(F)(F)F)cc1 [drawing 116]
- IC50 [6]: 0.43 ± 0.12 µM

Further lines, results first:

- IC50 [1]: 8.47 ± 0.59 µM
- fold loss of CT-L activity: 13 fold
- IC50 (read-out: IC50, in vitro CT-L): 8.4 µM
Structure (SMILES): Cc1ccc(-c2noc(CN(C(=O)COc3ccccc3)C(C)C)n2)cc1 [11k, N-Isopropyl-2-phenoxy-N-((3-p-tolyl-1,2,4-oxadiazol-5-yl)methyl)acetamide]

- IC50 [1]: 0.31 ± 0.08 µM
- IC50 (read-out: IC50, in vitro CT-L): 0.3 to 0.5 µM
Structure (SMILES): Cc1ccc(OCC(=O)N(Cc2nc(-c3ccccc3)no2)C(C)C)cc1 [11m, N-isopropyl-N-((3-phenyl-1,2,4-oxadiazol-5-yl)methyl)-2-(p-tolyloxy)acetamide]

- IC50 [1]: 0.97 ± 0.15 µM
- IC50 (read-out: IC50, in vitro CT-L): ~1 µM
Structure (SMILES): Cc1ccc(OCC(=O)N(Cc2nc(-c3ccc(C(F)(F)F)cc3)no2)C(C)C)cc1 [11n, N-Isopropyl-2-(p-tolyloxy)-N-((3-(4-(trifluoromethyl)phenyl)-1,2,4-oxadiazol-5-yl)methyl)acetamide]

- IC50 [1]: > 10 µM
- inhibition at 10 µM [2]: < 70%
Structure (SMILES): CC(C)N(Cc1nc(-c2ccccc2)no1)C(=O)COc1ccc2cc(Br)ccc2c1 [11r, 2-(6-Bromonaphthalen-2-yloxy)-N-isopropyl-N-((3-phenyl-1,2,4-oxadiazol-5-yl)methyl)acetamide]

- fold improved CT-L activity (compared to the hit 1 (PI-1833)): 2.5 fold
- IC50 (read-out: IC50, in vitro CT-L): 0.239 ± 0.09 µM
Structure (SMILES): Cc1ccc(OCC(=O)N(Cc2nc(-c3cccnc3)no2)C(C)C)cc1 [11x, N-isopropyl-N-((3-(pyridin-3-yl)-1,2,4-oxadiazol-5-yl)methyl)-2-(p-tolyloxy)acetamide]

- fold loss of CT-L activity: 3 fold
- IC50 (read-out: IC50, in vitro CT-L): 2.37 µM
Structure (SMILES): Cc1ccc(OCC(=O)N(Cc2nc(-c3ccc(C)cc3)no2)CC(C)C)cc1 [12a, N-Isobutyl-N-((3-p-tolyl-1,2,4-oxadiazol-5-yl)methyl)-2-(p-tolyloxy)acetamide]

- IC50 [3]: 8.98 ± 5.21 µM
- fold loss of CT-L activity: 14 fold
- IC50 (read-out: IC50, in vitro CT-L): 8.8 µM
Structure (SMILES): CCN(Cc1nc(-c2ccc(C)cc2)no1)C(=O)COc1ccc(C)cc1 [12b, N-Ethyl-N-((3-p-tolyl-1,2,4-oxadiazol-5-yl)methyl)-2-(p-tolyloxy)acetamide]

- IC50 (read-out: IC50, in vitro CT-L): 0.214 µM
Structure (SMILES): Cc1ccc(O[C@@H](C)C(=O)N(Cc2nc(-c3cccnc3)no2)C(C)C)cc1 [16b, (S)—N-Isopropyl-N-((3-(pyridine-3-yl)-1,2,4-oxadiazol-5-yl)methyl)-2-(p-tolyloxy)propanamide]

- fold difference of CT-L potency between S- and R-enantiomer: 35 fold
- IC50 [4]: 7.52 ± 2.13 µM
Structure (SMILES): Cc1ccc(O[C@H](C)C(=O)N(Cc2nc(-c3cccnc3)no2)C(C)C)cc1 [16c, (R)—N-Isopropyl-N-((3-(pyridine-3-yl)-1,2,4-oxadiazol-5-yl)methyl)-2-(p-tolyloxy)propanamide]

- fold difference of CT-L potency between S- and R-enantiomer: 40 fold
- IC50 [4]: 0.075 µM
Structure (SMILES): CCCc1ccc(O[C@@H](C)C(=O)N(Cc2nc(-c3cccnc3)no2)C(C)C)cc1 [16e, (S)—N-Isopropyl-2-(4-propylphenoxy)-N-((3-(pyridine-3-yl)-1,2,4-oxadiazol-5-yl)methyl)propanamide]

- IC50 [5]: > 10 µM
- IC50 (read-out: IC50, in vitro CT-L): > 10 µM
Structure (SMILES): Cc1ccc(CNC(=O)N(Cc2nc(-c3ccccc3)no2)C(C)C)cc1 [SO2-024, 1-Isopropyl-3-(4-methylbenzyl)-1-((3-phenyl-1,2,4-oxadiazol-5-yl)methyl)urea]

- CT-L inhibitory activity, in words: activity was diminished
Structure (SMILES): CC(C)N(Cc1nc(-c2ccccc2)no1)C(=O)CCc1ccc(C(F)(F)F)cc1 [compound 41]

- CT-L inhibitory activity, in words: loss of CT-L activity
Structure (SMILES): Cc1ccc(CNC(=O)N(Cc2nc(-c3ccccc3)no2)C(C)C)cc1 [compound 43]

- Screening Results (% Inhibition @ 10 μM) Chymotrypsin-like (Table 5, @ 10 μM, 10 µM): 74% and 67% and 71%
- inhibition at 10 µM (Table 5, @ 10 μM, read-out: Screening Results (% Inhibition @ 10 μM) Chymotrypsin-like): 73%
- IC50 [6]: 0.65 ± 0.38 µM
Structure (SMILES): Cc1ccc(OCC(=O)N(Cc2nc(-c3ccc(C)cc3)no2)C(C)C)cc1 [drawing 108]

- IC50 [6]: 0.58 µM and 0.857 µM
Structure (SMILES): CC(C)N(Cc1nc(-c2ccc(Cl)cc2)no1)C(=O)COc1ccc(C(F)(F)F)cc1 [drawing 114]

- IC50 [6]: 2.53 ± 0.95 µM
Structure (SMILES): CC(C)N(Cc1nc(-c2ccc(C(F)(F)F)cc2)no1)C(=O)COc1ccc(C(F)(F)F)cc1 [drawing 115]

Reference: patent publication US9878999B2, “Proteasome chymotrypsin-like inhibition using PI-1833 analogs” (H. Lee Moffitt Cancer Center and Research Institute, Inc., priority 2011, dated 2018)
